The test system of series [1] is HIV-1 NL4.3. The series is described as follows: Time of addition assay in TZM-bl cells. In kind it is cell-based. As to the method: TZM-bl cells were seeded in 96-well tissue culture plates at 2.5×10^4 cells per well in 100 µl of DMEM-10. Cells were grown for 12 h at 37°C in 5% CO2 after which triplicate wells were infected with NL4.3 at a multiplicity of infection of one by spinoculation. Briefly, DMEM-10 was removed from cells and replaced with 100 µl of virus in DMEM-10 and plates were centrifuged at 1200 g for 60 min at 17°C. Viral inoculum was removed and cells washed twice with 250 µl of cold DMEM-10 after which 100 µl of DMEM-10 or DMEM-10 containing drug was added at t = 0 to appropriate cells. DMEM-10 containing drug was subsequently added at t = 2, 3, 4, 5, 6, 8 and 24 h post infection to appropriate wells. At 31 h postinfection, HIV-1 replication was determined by measuring luciferase activity as above.

For series [2], the system named is X4 (HXB2) HIV-1 envelope mediated cell-to-cell fusion. Kind of series: Cell-to-cell fusion assay, X4 envelope. In kind it is cell-based. As to the method:
(§1) The gp120 gene from the R5 HIV-1 strain ADA and X4 HIV-1 strain HXB2 was cloned into a HIV-1 Env expression vector. Briefly, the 2.1 kb HIV-1 env within Kpn I and Bam HI restriction sites was cloned from viral genomic DNA into pSVIII-HXB2 Env expression vector [67]. The pcDNA3-CD4, pcDNA3-CCR5 and pcDNA3-CXCR4 plasmids express human CD4, R5 and X4 respectively. pSVTat expresses the HIV-1 Tat protein. Cell-cell fusion assays were conducted as described previously. Briefly, Cf2-Luc target cells seeded in 25 cm^2 tissue culture flasks were transfected with 1 µg of CD4 plasmid and 3 µg of R5 or X4 plasmid. 293T effector cells seeded in 6-well tissue culture plates were co-transfected with 3.4 µg of ADA or HXB2 gp120-expressing plasmid and 0.6 µg pSVTat. Target and effector cells were transfected using Lipofectamine 2000 (Invitrogen) according to the manufacturers' protocol. Effector cells expressing ADA or HXB2 Env were pre-incubated in DMEM-10 containing 10-fold increasing concentrations of efavarenz, T-20, dendrimer or no drug (untreated controls) for 30 min at 37°C. Approximately 2×10^4 effector cells were added to 2×10^4 Cf2-Luc target cells and were incubated at 37°C in replicate wells containing 200 µl of culture. Cells from replicate wells were harvested at 7 h post-mixing and assayed for luciferase activity (Promega) according to the manufacturers' protocol. […]

The test system of series [3] is HIV-2 strains. The series is described as follows: Anti-HIV activity in PHA-stimulated human PBMCs, supernatant RT activity readout. In kind it is cell-based. As to conditions: PBMC. As to the method:
(§2) Fresh human PBMCs were isolated from screened donors, seronegative for HIV and hepatitis B virus. Cells were pelleted/washed 2-3 times by low speed centrifugation and resuspended in Dulbecco’s phosphate buffered saline (PBS) to remove contaminating platelets. The leukophoresed blood was then diluted 1:1 with PBS and layered over 14 ml of Ficoll-Hypaque density gradient (Lymphocyte Separation Medium, Cell Grow #85-072-CL, density 1.078 +/- 0.002 gm/ml) in a 50 ml centrifuge tube and then centrifuged for 30 min at 600g. Banded PBMCs were gently aspirated from the resulting interface and subsequently washed twice with PBS by low speed centrifugation. After the final wash, cells were counted by trypan blue exclusion and resuspended at 1 x 10^7 cells/ml in RPMI 1640 supplemented with 15% Fetal Bovine Serum (FBS), 2 mM L-glutamine, 4 µg/ml PHA-P. The cells were allowed to incubate for 48-72 h at 37°C. After incubation, PBMCs were centrifuged and resuspended in RPMI 1640 with 15% FBS, 2 mM L-glutamine, 100 U/ml penicillin, 100 µg/ml streptomycin, 10 µg/ml gentamycin, and 20 U/ml recombinant human IL-2. PBMCs were maintained in this medium at a concentration of 1-2 x 10^6 cells/ml with biweekly medium changes until used in the assay protocol. Monocytes were depleted from the culture as the result of adherence to the tissue culture flask.
For the standard PBMC assay, PHA-P stimulated cells from at least two normal donors were pooled, diluted in fresh medium to a final concentration of 1 x 10^6 cells/ml, and plated in the wells of a 96-well round bottom microplate at 50 µl/well (5 x 10^4 cells/well). […] Fifty microlitres of a predetermined dilution of virus stock was placed in each test well (final MOI ≅ 0.1). Wells with cells and virus alone were used for virus control. […]
A microtiter plate-based reverse transcriptase (RT) reaction was utilized. […] Incorporated radioactivity (counts per minute, CPM) was quantified using standard liquid scintillation techniques.
(§3) The plate was read spectrophotometrically at 490/650 nm with a Molecular Devices Vmax plate reader

Series [4] concerns HIV-1 strains. Kind of series: microbe, parasite or virus in culture. The format is cell-based. As to the method: as §2
For the standard PBMC assay, PHA-P stimulated cells from at least two normal donors were pooled, diluted in fresh medium to a final concentration of 1 x 10^6 cells/ml, and plated in the wells of a 96-well round bottom microplate at 50 µl/well (5 x 10^4 cells/well). […] Fifty microlitres of a predetermined dilution of virus stock was placed in each test well (final MOI ≅ 0.1). Wells with cells and virus alone were used for virus control. […] The PBMC cultures were maintained for seven days following infection, at which time cell-free supernate samples were collected and assayed for reverse transcriptase activity as described below.
A microtiter plate-based reverse transcriptase (RT) reaction was utilized. Tritiated thymidine triphosphate (^3H-TTP, 80 Ci/mmol, NEN) was received in 1:1 dH2O:ethanol at 1 mCi/ml. PolyrA:oligodT template-primer (Pharmacia) was prepared as a stock solution by combining 150 µl polyrA (20 mg/ml) with 0.5 ml oligodT (20 units/ml) and 5.35 ml sterile dH2O followed by aliquoting (1.0 ml) and storage at -20°C. The RT reaction buffer was prepared fresh on a daily basis and consisted of 125 µl 1.0 M EGTA, 125 µl dH2O, 125 µl 20% Triton X100, 50 µl 1.0 M Tris (pH 7.4), 50 µl 1.0 M DTT, and 40 µl 1.0 M MgCl2. The final reaction mixture was prepared by combining 1 part ^3H-TTP, 4 parts dH2O, 2.5 parts polyrA:oligodT stock and 2.5 parts reaction buffer. Ten microliters of this reaction mixture was placed in a round bottom microtiter plate and 15 µl of virus containing supernatant was added and mixed. The plate was incubated at 37°C for 60 min. Following incubation, the reaction volume was spotted onto DE81 filter-mats (Wallac), washed 5 times for 5 min each in a 5% sodium phosphate buffer or 2X saline sodium citrate (SSC, Life Technologies), 2 times for 1 min each in distilled water, 2 times for 1 min each in 70% ethanol, and then dried. Incorporated radioactivity (counts per minute, CPM) was quantified using standard liquid scintillation techniques.
as §3

The test system of series [5] is R5 (ADA) HIV-1 envelope mediated cell-to-cell fusion. Kind of series: Cell-to-cell fusion assay, R5 envelope. In kind it is cell-based. As to the method:
as §1

Series [6] deals with HSV-2 strain G. On the set-up: method as in PMID 16740164. As to conditions: mouse, single dose; cited from earlier work.
[7] abbreviates: PBMC, multi-drug resistant HIV-1 MDR769.

pEC50: −log10 of the molar value. Like-named read-outs stand apart in the source and are kept apart here.

`c1cc(CN2CCCNCCNCCCNCC2)ccc1CN1CCCNCCNCCCNCC1` [AMD3100]: the “time of addition result” value in series [1] (dendrimers at 20 and 100 µg/ml) is recorded as “failed to block HIV-1 replication if the drug was added after virus addition”. In addition, the “inhibition of cell-to-cell fusion” value in series [2] is “failed to inhibit fusion”.
Take `Cc1cn([C@H]2C[C@H](N=[N+]=[N-])[C@@H](CO)O2)c(=O)[nH]c1=O` [AZT, zidovudine]: the pEC50 (usually −log10 of the EC50, conventionally taken in molar units) in series [3] (Human immunodeficiency virus 2, HIV-2 CBL-20, AZT column) was 9.00; in series [4] (Human immunodeficiency virus 1, CCR5, PBMC, Clade A (92RW016), CCR5) it was 8.70; in series [4] (Human immunodeficiency virus 1, CCR5, PBMC, Clade B (302056), CCR5), 8.00; in series [4] (Human immunodeficiency virus 1, CCR5, PBMC, Clade C (92BR025), CCR5) it was 8.40; in series [4] (Human immunodeficiency virus 1, CCR5, PBMC, Clade G (JV1083), CCR5) it was 8.40; in series [4] (Human immunodeficiency virus 1, CCR5, PBMC, Clade O (BCF01), CCR5), 8.40. Moreover, the pEC50 in series [4] (Human immunodeficiency virus 1, CCR5, PBMC, SLKA (NSI), CCR5) is 8.40; in series [4] (Human immunodeficiency virus 1, CCR5, PBMC, TEKI (NSI), CCR5), 8.70; in series [4] (Human immunodeficiency virus 1, PBMC, PBMC, Clade D (92UG046), CXCR4) it was 8.52; in series [4] (Human immunodeficiency virus 1, PBMC, PBMC, Clade EA (CMU02), CXCR4), 8.10; in series [4] (Human immunodeficiency virus 1, PBMC, PBMC, Clade F (93BR020), dual tropic), 8.70; in series [4] (Human immunodeficiency virus 1, PBMC, PBMC, ROJO (SI), CXCR4) it was 8.70. The pEC50 in series [4] (Human immunodeficiency virus 1, PBMC, PBMC, WEJO (SI), CXCR4) was 9.52; in series [4] (Human immunodeficiency virus 1, PBMC, read-out: EC50 of positive control, assay validation, PBMC assays), ≥ 8.00. Further, the SI in series [3] (HIV-2 CBL-20) was >1000; in series [3] (HIV-2 CDC 310319), >1000; in series [4] (PBMC, Clade A (92RW016)) it was >500; in series [4] (PBMC, Clade B (302056)) it was >100; in series [4] (PBMC, Clade C (92BR025)), >250; in series [4] (PBMC, Clade D (92UG046)) it was >333. Besides, the SI was >125 in series [4] (PBMC, Clade EA (CMU02)); >500 in series [4] (PBMC, Clade F (93BR020)); >250 in series [4] (PBMC, Clade G (JV1083)); >250 in series [4] (PBMC, Clade O (BCF01)); >500 in series [4] (PBMC, ROJO (SI)); >250 in series [4] (PBMC, SLKA (NSI)). Besides, the SI in series [4] (PBMC, TEKI (NSI)) is >500; in series [4] (PBMC, WEJO (SI)) it was >3333.
On to `O=C1Nc2ccc(Cl)cc2[C@@](C#CC2CC2)(C(F)(F)F)O1` [efavirenz], for which the “inhibition of cell-to-cell fusion” value in series [2] and in series [5] was “did not inhibit cell-to-cell fusion” throughout.
With `Cc1ccnc2c1NC(=O)c1cccnc1N2C1CC1` [nevirapine], in series [1], the “time post infection that addition could be delayed before loss of HIV-1 inhibitory activity” value is “up to 6 h”.
On to `CCCCCCCCCc1ccc(OCCOCCOCCOCCOCCOCCOCCOCCOCCO)cc1` [nonoxynol 9], for which the “susceptibility to HSV-2 infection after exposure” value in series [6] is reported as “susceptibility is greatly increased”.
For Dextran Sulfate, in series [4] (setting [7]), the EC50 – broadly, the concentration at which the effect is half-maximal – worked out at 1.25 mg/L and the SI was >80.
As to maraviroc, the “inhibition of cell-to-cell fusion” value in series [5] was “failed to inhibit fusion”.

(Values after PMC2925893, “Structure Activity Relationship of Dendrimer Microbicides with Dual Action Antiviral Activity” (PLoS ONE, 2010).)
